Data reported in US20260250277A1, “HYDRAZINO GROUP-CONTAINING COMPOUND” (CHIA TAI TIANQING PHARMACEUTICAL GROUP CO., LTD., priority 2022, published 2026).
Read-outs that look alike come from different tables or passages of the source.

Assays:
[1] = biological target: DNA-PK (DNA-dependent protein kinase) (Homo sapiens, UniProt P78527); test: Inhibitory activity against DNA-PK (p53 substrate, HTRF); type: biochemical
Protocol: (§1) DNA-PK kinase solution (concentration: 0.15 ng/μL) was added to assay wells at 6 μL/well, and different compounds dissolved in DMSO were added to the assay wells separately using a nanoliter pipettor, such that the final concentrations of the compounds were 10000 nM to 2.44 nM. In this experiment, the wells were set in duplicate, and a control well was set. After incubation of the above system for 30 min at room temperature, ATP (100 μM) was mixed with p53 substrate (50 nM) at a ratio of 1:1, and the mixture was added at 4 μL/well. The resulting mixture was left to react at room temperature for 2 h, and then 5 μL of EDTA was added to terminate the reaction, followed by addition of 5 μL of detection antibodies, Mab Anti-phospho p53 and Mab Anti GST-d2 (manufacturer: perkinelmer). The mixture was incubated at room temperature for 1 h. The plate was read using a PerkinElmer Envision multifunctional microplate reader (excitation: 320 nm, emission: 620 nm/665 nm), and IC50 was calculated by four-parameter fitting.

[2] = biological target: ATR/ATPIP (ATR-interacting protein) kinase (Homo sapiens, UniProt Q13535); test: Inhibitory activity against ATR kinase (p53 substrate, HTRF); type: biochemical
Protocol: as §1, with “ATR/ATPIP (ATR-interacting protein)” for “DNA-PK”, “50” for “0.15”, “(5” for “(100”

ATM kinase = ATM kinase (Homo sapiens, UniProt Q13315); test: Inhibitory activity against ATM kinase (p53 substrate, HTRF); type: biochemical
Chain of ATM kinase (Q13315 whole entry): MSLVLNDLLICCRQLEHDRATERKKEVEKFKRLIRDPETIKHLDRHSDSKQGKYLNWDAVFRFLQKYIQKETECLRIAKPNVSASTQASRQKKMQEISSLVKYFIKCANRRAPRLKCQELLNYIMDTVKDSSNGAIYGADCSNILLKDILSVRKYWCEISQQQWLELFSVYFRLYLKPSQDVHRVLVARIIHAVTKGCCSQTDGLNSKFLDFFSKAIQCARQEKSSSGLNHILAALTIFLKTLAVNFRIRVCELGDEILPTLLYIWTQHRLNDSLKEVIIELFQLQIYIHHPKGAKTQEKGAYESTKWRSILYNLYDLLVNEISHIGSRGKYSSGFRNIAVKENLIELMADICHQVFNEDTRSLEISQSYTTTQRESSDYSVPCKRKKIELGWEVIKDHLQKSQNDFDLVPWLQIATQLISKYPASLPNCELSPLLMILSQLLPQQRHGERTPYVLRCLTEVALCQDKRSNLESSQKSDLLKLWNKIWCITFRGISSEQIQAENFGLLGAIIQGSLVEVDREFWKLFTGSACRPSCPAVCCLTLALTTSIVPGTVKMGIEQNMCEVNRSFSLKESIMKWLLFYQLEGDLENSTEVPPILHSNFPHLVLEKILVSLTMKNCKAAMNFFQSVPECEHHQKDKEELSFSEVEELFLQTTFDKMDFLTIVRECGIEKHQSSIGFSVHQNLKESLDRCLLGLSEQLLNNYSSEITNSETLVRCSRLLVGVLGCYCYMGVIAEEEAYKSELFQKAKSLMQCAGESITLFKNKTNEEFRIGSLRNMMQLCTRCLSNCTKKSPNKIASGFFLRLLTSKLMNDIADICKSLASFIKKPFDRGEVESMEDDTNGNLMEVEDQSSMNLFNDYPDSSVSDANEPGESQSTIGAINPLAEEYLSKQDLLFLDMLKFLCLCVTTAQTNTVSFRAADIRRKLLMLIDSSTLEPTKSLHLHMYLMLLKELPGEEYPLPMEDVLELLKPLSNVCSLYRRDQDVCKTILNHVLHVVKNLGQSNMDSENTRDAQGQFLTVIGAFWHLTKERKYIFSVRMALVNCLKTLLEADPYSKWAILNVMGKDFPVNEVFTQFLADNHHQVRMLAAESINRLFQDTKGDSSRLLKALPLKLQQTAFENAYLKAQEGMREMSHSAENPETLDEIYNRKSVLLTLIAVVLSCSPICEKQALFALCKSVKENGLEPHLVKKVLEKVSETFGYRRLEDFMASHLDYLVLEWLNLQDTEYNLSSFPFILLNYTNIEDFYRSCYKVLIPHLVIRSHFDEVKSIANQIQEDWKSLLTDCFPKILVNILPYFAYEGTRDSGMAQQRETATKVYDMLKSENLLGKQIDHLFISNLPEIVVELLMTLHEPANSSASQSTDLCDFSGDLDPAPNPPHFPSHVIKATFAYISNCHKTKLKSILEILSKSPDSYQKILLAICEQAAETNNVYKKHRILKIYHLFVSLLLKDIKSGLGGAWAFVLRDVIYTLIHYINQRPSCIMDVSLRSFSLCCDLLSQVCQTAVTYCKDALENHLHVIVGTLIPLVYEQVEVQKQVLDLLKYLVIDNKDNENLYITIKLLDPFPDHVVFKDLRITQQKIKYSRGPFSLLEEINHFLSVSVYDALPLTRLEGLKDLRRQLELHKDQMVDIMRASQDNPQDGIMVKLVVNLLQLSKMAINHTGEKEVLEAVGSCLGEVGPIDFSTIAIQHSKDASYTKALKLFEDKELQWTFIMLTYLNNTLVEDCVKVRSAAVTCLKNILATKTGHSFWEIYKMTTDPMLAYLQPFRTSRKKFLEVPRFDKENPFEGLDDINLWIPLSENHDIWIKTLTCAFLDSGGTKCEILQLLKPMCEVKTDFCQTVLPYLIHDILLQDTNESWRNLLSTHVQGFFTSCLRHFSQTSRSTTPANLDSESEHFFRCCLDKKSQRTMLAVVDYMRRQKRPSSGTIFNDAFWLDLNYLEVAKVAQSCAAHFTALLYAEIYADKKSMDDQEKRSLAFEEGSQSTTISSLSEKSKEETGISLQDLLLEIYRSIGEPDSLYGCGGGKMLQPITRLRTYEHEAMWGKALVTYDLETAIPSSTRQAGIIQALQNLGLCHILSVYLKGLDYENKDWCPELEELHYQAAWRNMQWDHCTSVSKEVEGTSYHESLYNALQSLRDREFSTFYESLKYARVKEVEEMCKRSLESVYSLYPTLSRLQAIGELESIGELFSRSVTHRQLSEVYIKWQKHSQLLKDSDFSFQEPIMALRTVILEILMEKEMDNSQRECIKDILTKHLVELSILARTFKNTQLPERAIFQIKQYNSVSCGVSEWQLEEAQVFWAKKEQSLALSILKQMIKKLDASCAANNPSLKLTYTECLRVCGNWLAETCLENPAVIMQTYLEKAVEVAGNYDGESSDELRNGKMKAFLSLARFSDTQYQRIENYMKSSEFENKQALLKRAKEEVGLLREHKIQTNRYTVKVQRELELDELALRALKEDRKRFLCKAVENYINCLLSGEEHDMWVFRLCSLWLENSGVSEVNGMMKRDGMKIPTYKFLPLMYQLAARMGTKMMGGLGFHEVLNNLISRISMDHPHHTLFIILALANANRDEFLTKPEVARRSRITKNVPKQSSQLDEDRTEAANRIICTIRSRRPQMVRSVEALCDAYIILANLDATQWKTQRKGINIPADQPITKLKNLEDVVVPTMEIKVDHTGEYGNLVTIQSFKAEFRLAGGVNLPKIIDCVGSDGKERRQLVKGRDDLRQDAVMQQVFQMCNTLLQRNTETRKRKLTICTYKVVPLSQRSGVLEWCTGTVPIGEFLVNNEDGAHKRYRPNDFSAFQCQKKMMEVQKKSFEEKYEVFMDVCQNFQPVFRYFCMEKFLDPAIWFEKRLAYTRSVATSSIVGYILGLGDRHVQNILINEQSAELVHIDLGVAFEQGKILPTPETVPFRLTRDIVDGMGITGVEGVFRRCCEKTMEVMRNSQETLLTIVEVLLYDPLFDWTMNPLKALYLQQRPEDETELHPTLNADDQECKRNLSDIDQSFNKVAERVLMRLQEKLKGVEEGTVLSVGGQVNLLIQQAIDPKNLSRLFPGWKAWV
Protocol: as §1, with “ATM” for “DNA-PK”, “25” for “0.15”

[3] = system: CHK2 phosphorylation of NCI-H2228 cells; test: Inhibitory activity against CHK2 phosphorylation of NCI-H2228 cells (p-CHK2 Thr68 AlphaLISA); type: cell-based; conditions: Homo sapiens
Protocol: NCI-H2228 cells in a good growth state were collected, added to a centrifuge tube, adjusted to a cell density of 1.25×10^6 cells/mL, and seeded in a 384-well plate (8 μL/well). The cells were equilibrated in a cell incubator for 1.5 h, and then compounds were added using a nanoliter pipettor, such that the final concentrations of the compounds were 200 nM to 0.049 nM. In this experiment, the wells were set in duplicate, and a control well was set. After the mixture was further cultured for 1 h in the cell incubator, an assay was performed using a p-CHK2 (Thr68) assay kit (manufacturer: perkinelmer) and the Envision microplate reader AlphaLISA program. A four-parameter analysis was performed, a dose-response curve was fit, and IC50 was calculated.

[4] = In vivo pharmacokinetics (Table 4); conditions: for AUC(0-inf) / AUC(0-t) / half-life / MRT last / Vd / Cmax / Tmax: plasma; for MRT last: read-out: MRT(0-t); for Vd: read-out: Vz

IC50 [1] | IC50 [2] | IC50 (ATM kinase) | IC50 [3] | SMILES | further results
> 1000 nM | 289 nM | < 50 nM | – | CC(C)n1c(=O)n(N)c2cnc3ccc(-c4ccc(OCCCN5CCCCC5)nc4)cc3c21 [Example 1] | –
> 1000 nM | > 1000 nM | < 50 nM | – | CC(C)n1c(=O)n(N)c2cnc3cc(F)c(-c4ccc(OCCCN(C5CC5)C5CC5)nc4)cc3c21 [Example 4] | –
> 1000 nM | > 1000 nM | < 50 nM | < 50 nM | Nn1c(=O)n(C2CCOCC2)c2c3cc(-c4ccc(OCCCN5CCCC5)nc4)c(F)cc3ncc21 [Example 5] | –
> 1000 nM | > 1000 nM | < 50 nM | – | Nn1c(=O)n(C2CCOCC2)c2c3cc(-c4ccc(OCCCN(C5CC5)C5CC5)nc4)c(F)cc3ncc21 [Example 6] | –
> 1000 nM | > 1000 nM | < 50 nM | < 50 nM | CNn1c(=O)n(C(C)C)c2c3cc(-c4ccc(OCCCN5CCCCC5)nc4)c(F)cc3ncc21 [Example 7] | –
> 1000 nM | > 1000 nM | < 50 nM | – | [2H]C([2H])([2H])Nn1c(=O)n(C(C)C)c2c3cc(-c4ccc(OCCCN5CCCCC5)nc4)c(F)cc3ncc21 [Example 8] | –
> 1000 nM | > 1000 nM | < 50 nM | – | COc1cc2ncc3c(c2cc1-c1ccc(OCCCN2CCCCC2)nc1)n(C1CC1)c(=O)n3N [Example 10] | –
> 1000 nM | > 1000 nM | < 50 nM | < 50 nM | COc1cc2ncc3c(c2cc1-c1ccc(OCCCN2CCCC2)nc1)n(C1CC1)c(=O)n3N [Example 11] | –
> 1000 nM | > 1000 nM | < 50 nM | – | COC1CCC(n2c(=O)n(N)c3cnc4cc(F)c(-c5ccc(OCCCN6CCCCC6)nc5)cc4c32)C1 (stereo not drawn) [Example 12] | –
> 1000 nM | > 1000 nM | < 50 nM | < 50 nM | COC1CCC(n2c(=O)n(N)c3cnc4cc(F)c(-c5ccc(OCCCN6CCCC6)nc5)cc4c32)C1 (stereo not drawn) [Example 13] | –
> 1000 nM | > 1000 nM | < 50 nM | < 50 nM | COC1CCC(n2c(=O)n(N)c3cnc4cc(F)c(-c5ccc(OCCCN(C)C)nc5)cc4c32)C1 (stereo not drawn) [Example 14] | –
> 1000 nM | > 1000 nM | < 50 nM | – | Nn1c(=O)n(C2CCOCC2)c2c3cc(-c4ccc(OCCCN5CCCCC5)nc4)c(F)cc3ncc21 [Example 15] | –
> 1000 nM | > 1000 nM | < 50 nM | – | COc1cc2ncc3c(c2cc1-c1ccc(OCCCN2CCCCC2)nc1)n(C(C)C)c(=O)n3N [Example 16] | –
> 1000 nM | > 1000 nM | < 50 nM | < 50 nM | COc1cc2ncc3c(c2cc1-c1ccc(OCCCN2CCCC2)nc1)n(C(C)C)c(=O)n3N [Example 17] | –
> 1000 nM | > 1000 nM | < 50 nM | < 50 nM | COC1CC(n2c(=O)n(N)c3cnc4cc(F)c(-c5ccc(OCCCN6CCCCC6)nc5)cc4c32)C1 (stereo not drawn) [Example 20] | –
> 1000 nM | > 1000 nM | < 50 nM | < 50 nM | COC1CC(n2c(=O)n(N)c3cnc4cc(F)c(-c5ccc(OCCCN(C)C)nc5)cc4c32)C1 (stereo not drawn) [Example 21] | –

IC50 [1] | IC50 [2] | IC50 (ATM kinase) | IC50 [3] | SMILES | further results
> 1000 nM | – | < 50 nM | < 50 nM | CC(C)n1c(=O)n(N)c2cnc3cc(F)c(-c4ccc(OCC5CC(N6CCCC6)C5)nc4)cc3c21 (stereo not drawn) [Example 22] | –
> 1000 nM | – | < 50 nM | < 50 nM | CC(C)n1c(=O)n(N)c2cnc3cc(F)c(-c4ccc(OCCCN5CC(F)C5)nc4)cc3c21 [Example 23] | –
> 1000 nM | – | < 50 nM | < 50 nM | CC(C)n1c(=O)n(N)c2cnc3cc(F)c(-c4ccc(OCCCN5CC(F)(F)C5)nc4)cc3c21 [Example 24] | –
> 1000 nM | – | < 50 nM | < 50 nM | CC(C)n1c(=O)n(N)c2cnc3cc(F)c(-c4ccc(OCCCN5CCC(CF)C5)nc4)cc3c21 (stereo not drawn) [Example 25] | –
> 1000 nM | – | < 50 nM | < 50 nM | CC(C)n1c(=O)n(N)c2cnc3cc(F)c(-c4ccc(OCCCN5CCC(F)(F)C5)nc4)cc3c21 [Example 26] | –
> 1000 nM | – | < 50 nM | < 50 nM | CC(C)n1c(=O)n(N)c2cnc3cc(F)c(-c4ccc(OCCCN5CC(CF)C5)nc4)cc3c21 [Example 28] | AUC(0-inf) ([4]; iv, 1 mg/kg): 2240 ng·h/mL; AUC(0-t) ([4]; iv, 1 mg/kg): 2230 ng·h/mL; half-life ([4]; iv, 1 mg/kg): 3.1 h; MRT last ([4]; iv, 1 mg/kg): 3.24 h; Vd ([4]; iv, 1 mg/kg): 1.5 L/kg; AUC(0-inf) ([4]; po, IG, 10 mg/kg): 17300 ng·h/mL; AUC(0-t) ([4]; po, IG, 10 mg/kg): 17200 ng·h/mL; Cmax ([4]; po, IG, 10 mg/kg): 1630 ng/mL; Tmax ([4]; po, IG, 10 mg/kg): 4 h; half-life ([4]; po, IG, 10 mg/kg): 3.04 h; MRT last ([4]; po, IG, 10 mg/kg): 5.56 h
> 1000 nM | – | < 50 nM | < 50 nM | CC(C)n1c(=O)n(N)c2cnc3cc(F)c(-c4ccc(OCCCN5CC6(CCC6)C5)nc4)cc3c21 [Example 29] | AUC(0-inf) ([4]; iv, 1 mg/kg): 3160 ng·h/mL; AUC(0-t) ([4]; iv, 1 mg/kg): 3140 ng·h/mL; half-life ([4]; iv, 1 mg/kg): 3.22 h; MRT last ([4]; iv, 1 mg/kg): 3.29 h; Vd ([4]; iv, 1 mg/kg): 1.09 L/kg; AUC(0-inf) ([4]; po, IG, 10 mg/kg): 27300 ng·h/mL; AUC(0-t) ([4]; po, IG, 10 mg/kg): 27000 ng·h/mL; Cmax ([4]; po, IG, 10 mg/kg): 2300 ng/mL; Tmax ([4]; po, IG, 10 mg/kg): 4 h; half-life ([4]; po, IG, 10 mg/kg): 3.51 h; MRT last ([4]; po, IG, 10 mg/kg): 5.99 h
> 10000 nM | 8090 nM | < 50 nM | – | COc1cc2ncc3c(c2cc1-c1ccc(OCCCN2CCCCC2)nc1)n(-c1c(F)cncc1OC)c(=O)n3N [Example 30] | –
> 10000 nM | 8720 nM | < 50 nM | < 50 nM | COc1cc2ncc3c(c2cc1-c1ccc(OCCCN2CCCC2)nc1)n(-c1c(F)cncc1OC)c(=O)n3N [Example 31] | –
– | – | – | < 50 nM | CC(C)n1c(=O)n(N)c2nnc3cc(F)c(-c4ccc(OCCCN5CCCCC5)nc4)cc3c21 [Example 32] | –
> 10000 nM | > 10000 nM | < 50 nM | – | CNn1c(=O)n(C(C)C)c2c3cc(-c4ccc(OCCCN5CCCCC5)nc4)c(F)cc3nnc21 [Example 33] | –
> 10000 nM | > 10000 nM | < 50 nM | – | CC(C)n1c(=O)n(N)c2nnc3cc(F)c(-c4ccc(OCCCN5CCCC5)nc4)cc3c21 [Example 34] | –
> 10000 nM | > 10000 nM | < 50 nM | – | CNn1c(=O)n(C(C)C)c2c3cc(-c4ccc(OCCCN5CCCC5)nc4)c(F)cc3nnc21 [Example 35] | –
> 10000 nM | > 10000 nM | < 50 nM | – | Nn1c(=O)n(C2CC2)c2c3cc(-c4ccc(OCCCN5CCCCC5)nc4)c(F)cc3nnc21 [Example 36] | –
> 10000 nM | > 10000 nM | < 50 nM | – | Nn1c(=O)n(C2CC2)c2c3cc(-c4ccc(OCCCN5CCCC5)nc4)c(F)cc3nnc21 [Example 37] | –

SMILES | IC50 [1] | IC50 [2] | IC50 (ATM kinase) | IC50 [3] | further results
CC(C)n1c(=O)n(N)c2cnc3cc(F)c(-c4ccc(OCCCN5C6CCC5CC6)nc4)cc3c21 [Example 27] | > 1000 nM | – | < 50 nM | < 50 nM | Absolute F ([4]; IG 10 mg/kg vs IV 1 mg/kg): 115.39%; CLz ([4]; IV, 1 mg/kg): 59.7 mL/min/kg; AUC(0-inf) ([4]; iv, 1 mg/kg): 280 ng·h/mL; AUC(0-t) ([4]; iv, 1 mg/kg): 271 ng·h/mL; half-life ([4]; iv, 1 mg/kg): 1.87 h; MRT last ([4]; iv, 1 mg/kg): 1.43 h; Vd ([4]; iv, 1 mg/kg): 6.11 L/kg; AUC(0-inf) ([4]; po, IG, 10 mg/kg): 3190 ng·h/mL; AUC(0-t) ([4]; po, IG, 10 mg/kg): 3130 ng·h/mL; Cmax ([4]; po, IG, 10 mg/kg): 342 ng/mL; Tmax ([4]; po, IG, 10 mg/kg): 2 h; half-life ([4]; po, IG, 10 mg/kg): 4.12 h; MRT last ([4]; po, IG, 10 mg/kg): 5.7 h
